Experimental findings from patent US6001331A, “Method of imaging amyloid deposits” (Warner-Lambert Company, priority 1998, dated 1999) are described below.

Read-outs that look alike come from different tables or passages of the source.

For assay [1], the target named is Insulin amyloid aggregates. Kind of assay: Competition assay with Thioflavin T (ThT) for binding to insulin amyloid aggregates, fluorescence 96-well plate. The conditions noted are these: 0.5 μM ThT, 2 μg per well fibrils, 25 mM sodium phosphate pH 6.0, room temperature. As to the method: Burke M. J. and Rougevie M. A., Cross-β Protein Structures. I. Insulin Fibrils. […] Briefly, lyophilized insulin protein powder dissolved at 10 mg/mL in 50 mM HCl was alternately heated to 95° C. and frozen in dry ice to form amyloid aggregates.
(§1) The ability of compounds of Formula I to compete with Thioflavin T (ThT) for binding to amyloid aggregates was measured using fluorescence in a 96-well fluorescence plate assay. As a compromise between sensitivity and signal and to facilitate comparisons between different amyloid fibrils, ThT is present at a concentration equal to the Kmapp of the particular amyloid fibril type and fibril concentrations yielding a similar fluorescence intensity are used. Insulin: 0.5 μM ThT, 2 μg per well. β(1-40): 20 μM ThT, 5 μg/well. All solutions are in 25 mM sodium phosphate buffer, pH 6.0, and the assay is performed at room temperature.
Using a multichannel pipettor, 100 μL of dilutions of the compound to be tested (0.001-30 μM final concentration in 3-fold steps) are placed in the bottom of Corning U-well polystyrene plates (Corning Company, Corning, N.Y.). 50 μL of ThT are then added to each well. The amyloid fibrils are then added to each well in a volume of 100 μL rapidly to mix the well contents. […] ThT dye blanks were used to correct for the minimal fluorescence background which are subtracted from all data.
(§2) Results are expressed as % maximal fluorescence (no competing compound). […]

Assay [2] addresses T1, βA(1-40) amyloid aggregates (Homo sapiens, UniProt P05067).
T1 construct: lyophilized β(1-40) protein powder (which may be purchased from BACHEM); purchased BACHEM
Put plainly: Competition assay with Thioflavin T (ThT) for binding to β(1-40) amyloid aggregates, fluorescence 96-well plate.
Description: Amyloid aggregates containing β(1-40) protein can also be made by methods well known to those skilled in the art. See, for example, Burdick D., Soreghan B., Kwon M., Kosmoski J., Knauer M., Henschen A., Yates J., Cotman C., and Glabe C. Assembly and aggregation properties of synthetic Alzheimer's A4/β amyloid peptide analogs. J. Biol. Chem., 267:546-554 (1992), which is hereby incorporated by reference. Briefly, lyophilized β(1-40) protein powder (which may be purchased from BACHEM) was dissolved at 10 mg/mL in hexafluoro-2-propanol and subsequently diluted to 500 μg/mL in 25 mM sodium phosphate buffer, pH 6 to induce the α-helix to β-sheet transition resulting in aggregate formation.
as §1
Using a multichannel pipettor, 100 μL of dilutions of the compound to be tested (0.001-30 μM final concentration in 3-fold steps) are placed in the bottom of Corning U-well polystyrene plates (Corning Company, Corning, N.Y.). 50 μL of ThT are then added to each well. The amyloid fibrils are then added to each well in a volume of 100 μL rapidly to mix the well contents. The plates are read within 5 to 30 minutes in a Millipore Cytofluor 2350 96-well fluorescence plate reader using an excitation filter of 440 nm (20 nm bandpass) and an emission filter of 485 nm (20 nm bandpass). ThT dye blanks were used to correct for the minimal fluorescence background which are subtracted from all data.
as §2

Setting [3] is: 20 μM ThT, 5 μg/well fibrils, 25 mM sodium phosphate pH 6.0, room temperature, read-out: βA(1-40), IC50.

The IC50 is the concentration needed to halve the response being measured.

T1 sequence (P05067 672-711 limits assumed): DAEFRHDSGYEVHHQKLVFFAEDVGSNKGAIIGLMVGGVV

Take `CN(C)c1ccc(/C=C/c2nc3cc(Cl)ccc3s2)cc1` [Example 1, (E)-{4-[2-(5-Chlorobenzothiazol-2-yl)vinyl]phenyl}dimethylamine]: the IC50 in assay [1] is 100000 nM; in assay [2] (setting [3]), > 100000 nM. Consider `CN(C)c1ccc(/C=C/c2nc3ccccc3s2)cc1` [Example 2, (E)-{4-[2-(Benzothiazol-2-yl)vinyl]phenyl}dimethylamine], for which, in assay [2] (setting [3]), the IC50 is > 100000 nM. Compound `Cc1ccc2sc(/C=C/c3ccc(N(C)C)cc3)nc2c1` [Example 3, (E)-Dimethyl-{4-[2-(5-methylbenzothiazol-2-yl)vinyl]phenyl}amine] returned an IC50 in assay [1] of 900 nM. Same read-out and setting: next, `Cc1ccc2nc(/C=C/c3ccc(N(C)C)cc3)sc2c1` [Example 4, (E)-Dimethyl-{4-[2-(6-methylbenzothiazol-2-yl)vinyl]phenyl}amine]: 1500 nM.

For the compound `CN(C)c1ccc(/C=C/c2nc3ccc(N(C)C)cc3s2)cc1` [Example 5, (E)-{2-[2-(4-Dimethylaminophenyl)vinyl]benzothiazol-6-yl}dimethylamine], in assay [2] (setting [3]), the IC50 is > 100000 nM.

Regarding `CN(C)c1ccc(/C=C/c2sc3ccccc3[n+]2Cc2ccccc2)cc1` [Example 6, (E)-3-Benzyl-2-[2-(4-dimethylaminophenyl)vinyl]benzothiazol-3-ium bromide], the IC50 worked out at 12 nM in assay [1] and 110 nM in assay [2]. Turning to `CC[n+]1c(/C=C/c2ccc(N(C)C)cc2)sc2ccccc21` [Example 7, (E)-2-[2-(4-Dimethylaminophenyl)vinyl]-3-ethylbenzothiazol-3-ium iodide], the IC50 in assay [1] came out at 6 nM; in assay [2] (setting [3]) it was 400 nM. As to `CN(C)c1ccc(/C=C/c2[s+]c3ccc4ccccc4c3n2C)cc1` [Example 8, (E)-2-[2-(4-Dimethylaminophenyl)vinyl]-1-methylnaphtho[1,2-d]thiazol-3-ium iodide], the IC50 in assay [1] stood at 53 nM; in assay [2] (setting [3]), 210 nM. Take `CN(C)c1ccc(/C=C/c2sc3ccccc3[n+]2C)cc1` [Example 9, (E)-2-[2-(4-Dimethylaminophenyl)vinyl]-3-methylbenzothiazol-3-ium iodide]: the IC50 in assay [2] (setting [3]) was determined as 1000 nM.

For the compound `C=CC[n+]1c(/C=C/c2ccc(N(C)C)cc2)sc2ccccc21` [Example 10, (E)-2-[2-(4-Dimethylaminophenyl)vinyl]-3-allylbenzothiazol-3-ium bromide], the IC50 in assay [1] worked out at 12 nM; in assay [2] it was 300 nM. For the compound `CCCC[n+]1c(/C=C/c2ccc(N(C)C)cc2)sc2ccccc21` [Example 11, (E)-2-[2-(4-Dimethylaminophenyl)vinyl]-3-butylbenzothiazol-3-ium iodide], the IC50 in assay [1] stood at 27 nM; in assay [2] (setting [3]), 160 nM. Turning to `CCCCCCC[n+]1c(/C=C/c2ccc(N(C)C)cc2)sc2ccccc21` [Example 12, (E)-2-[2-(4-Dimethylaminophenyl)vinyl]-3-heptylbenzothiazol-3-ium iodide], the IC50 in assay [2] (setting [3]) was found to be 93 nM.

Consider `CN(C)c1ccc(/C=C/c2sc3ccc(Cl)cc3[n+]2C)cc1` [Example 13, (E)-5-Chloro-2-[2-(4-dimethylaminophenyl)vinyl]-3-methylbenzothiazol-3-ium iodide], for which the IC50 in assay [1] worked out at 5.2 nM; in assay [2] (setting [3]), 430 nM. For the compound `CN(C)c1ccc(/C=C/c2sc3ccc(F)cc3[n+]2C)cc1` [Example 14, (E)-2-[2-(4-Dimethylaminophenyl)vinyl]-5-fluoro-3-methylbenzothiazol-3-ium iodide], the IC50 in assay [2] (setting [3]) was found to be 1000 nM. Turning to `CN(C)c1ccc(/C=C/c2sc3ccc(F)cc3[n+]2Cc2ccccc2)cc1` [Example 15, (E)-2-[2-(4-Dimethylaminophenyl)vinyl]-3-benzyl-5-fluorobenzothiazol-3-ium bromide], the IC50 was 32 nM in assay [1] and 170 nM in assay [2]. In the case of `Cc1ccc2sc(/C=C/c3ccc(N(C)C)cc3)[n+](C)c2c1` [Example 16, (E)-2-[2-(4-Dimethylaminophenyl)vinyl]-3,5-dimethylbenzothiazol-3-ium iodide], the IC50 in assay [1] worked out at 7.5 nM; in assay [2] (setting [3]), 400 nM. In the same order, the values of `Cc1ccc2c(c1)sc(/C=C/c1ccc(N(C)C)cc1)[n+]2C` [Example 17, (E)-2-[2-(4-Dimethylaminophenyl)vinyl]-3,6-dimethylbenzothiazol-3-ium iodide] are 6 nM and 180 nM. As for `Cc1ccc2c(c1)sc(/C=C/c1ccc(N(C)C)cc1)[n+]2Cc1ccccc1` [Example 18, (E)-3-Benzyl-2-[2-(4-dimethylaminophenyl)vinyl]-6-methylbenzothiazol-3-ium bromide], the IC50 in assay [1] worked out at 50 nM; in assay [2], 130 nM. Turning to `COc1ccc2c(c1)sc(/C=C/c1ccc(N(C)C)cc1)[n+]2C` [Example 19, (E)-2-[2-(4-Dimethylaminophenyl)vinyl]-6-methoxy-3-methylbenzothiazol-3-ium iodide], the IC50 in assay [2] (setting [3]) came to 300 nM. `CCCCCCC[n+]1c(/C=C/c2ccc(N(C)C)cc2)sc2cc(OC)ccc21` [Example 20, (E)-2-[2-(4-Dimethylaminophenyl)vinyl]-3-heptyl-6-methoxybenzothiazol-3-ium iodide]: the results for the IC50 in assay [1] and in assay [2] (setting [3]) were 40 nM and 140 nM, respectively. In the same order, the values of `CN(C)c1ccc(/C=C/c2sc3cc([N+](=O)[O-])ccc3[n+]2C)cc1` [Example 21, (E)-2-[2-(4-Dimethylaminophenyl)vinyl]-3-methyl-6-nitrobenzothiazol-3-ium toluene-4-sulfonate] are 12 nM and 1000 nM. In the same order, the values of `CCn1c(/C=C/c2ccc(N(C)C)cc2)[s+]c2ccc3ccccc3c21` [Example 22, (E)-2-[2-(4-Dimethylaminophenyl)vinyl]-1-ethylnaphtho[1,2-d]thiazol-3-ium toluene-4-sulfonate] are 41 nM and 210 nM.

With `CN(C)c1ccc(/C=C/c2sc3cc4ccccc4cc3[n+]2C)cc1` [Example 23, (E)-2-[2-(4-Dimethylaminophenyl)vinyl]-3-methylnaphtho[2,3-d]thiazol-3-ium iodide], the IC50 in assay [1] and in assay [2] (setting [3]) was 120 nM in each case. Consider `CN(C)c1ccc(/C=C/c2sc3c4ccccc4ccc3[n+]2C)cc1` [Example 24, (E)-2-[2-(4-Dimethylaminophenyl)vinyl]-3-methylnaphtho[2,1-d]thiazol-3-ium iodide], for which the IC50 in assay [1] was determined as 41 nM; in assay [2] (setting [3]) it was 210 nM.

For `CN(C)c1ccc(/C=C/c2sc3ccccc3[n+]2Cc2ccc(F)cc2)cc1` [Example 25, (E)-2-[2-(4-Dimethylaminophenyl)vinyl]-3-(4-fluorobenzyl)benzothiazol-3-ium bromide], the IC50 came to 42 nM in assay [1] and 120 nM in assay [2]. Compound `CN(C)c1ccc(/C=C/c2sc3ccccc3[n+]2Cc2ccccc2-c2ccccc2)cc1` [Example 28, (E)-3-Biphenyl-2-ylmethyl-2-[2-(4-dimethylaminophenyl)vinyl]benzothiazol-3-ium bromide] returned an IC50 in assay [1] of 80 nM.

Turning to `CN(C)c1ccc(/C=C/c2sc3ccccc3[n+]2C/C=C/c2ccccc2)cc1` [Example 32, (E,E)-2-[2-(4-Dimethylaminophenyl)vinyl]-3-(3-phenylallyl)benzothiazol-3-ium bromide], the IC50 in assay [1] turned out to be 80 nM. Take `CN(C)c1ccc(/C=C/c2sc3ccccc3[n+]2CCCCOc2ccccc2)cc1` [Example 35, (E)-2-[2-(4-Dimethylaminophenyl)vinyl]-3-(4-phenoxybutyl)benzothiazol-3-ium iodide]: the IC50 in assay [2] (setting [3]) came to 170 nM. The same measure, in the same setting: next, `CN(C)c1ccc(/C=C/c2sc3ccccc3[n+]2CCCCCc2ccccc2)cc1` [Example 36, (E)-2-[2-(4-Dimethylaminophenyl)vinyl]-3-(5-phenylpentyl)benzothiazol-3-ium iodide]: 170 nM; `CN(C)c1ccc(/N=N/c2nc3ccccc3s2)cc1` [Example 47, [4-(Dimethylamino)phenylazo]benzothiazole]: 22000 nM. On to `CN(C)c1ccc(/N=N/c2nc3c(ccc4ccccc43)s2)c2ccccc12` [Example 52, Dimethyl[4-(naphtho[1,2-d]thiazol-2-ylazo)naphthalen-1-yl]amine], for which, in assay [1], the IC50 is 16000 nM.
